Assay results reported in EP3868759A1, “2,3,5-SUBSTITUTED PYRROLO[2,3-B]PYRIDINES AS ERBB MODULATORS USEFUL FOR TREATING CANCER” (PearlRiver Bio GmbH, priority 2020, dated 2021).

Legend:
[1] = tested on: Her2 Exon 20 InsYVMA Ba/F3; assay: CellTiter-Glo cell viability, Her2 Exon 20 InsYVMA Ba/F3; assay type: cell-based; details: Mus musculus, BaF3, 72 h, read-out: Her2 Exon 20 InsYVMA Ba/F3 CTG IC50
Method: (§1) The CellTiter-Glo Luminescent Cell Viability Assay (Promega) is a homogeneous method of determining the number of viable cells in culture. It is based on quantification of ATP, indicating the presence of metabolically active cells. Cells are seeded on day 1 at cell numbers that assure assay linearity and optimal signal intensity. After incubation for 24h in humidified chambers at 37°C and 5% CO2, compounds in DMSO are added at different concentrations. Cells are further incubated for 72 h at 37°C and 5% CO2. Cells treated with the compound vehicle DMSO are used as positive controls and cells treated with 10 µM Staurosporine serve as negative controls. At day 5 the CellTiter Glo Reagent is prepared according to the instructions of the kit (Promega Inc.): Reagent is mixed 1:1 with cell culture medium. Thereon, mixture and assay plates are equilibrated at room temperature for 20 min. Equal volumes of the reagent-medium-mixture is added to the volume of culture medium present in each well. The plates are mixed at ∼200 rpm for 2 minutes on an orbital shaker. The microplates are then incubated at room temperature for 10 minutes for stabilization of the luminescent signal. Following incubation the luminescence is recorded on a Victor microplate reader (Perkin Elmer) using a 200 ms integration time. The data is then analyzed with Excel using the XLFIT Plugin (dose response Fit 205) for IC50-determination. As quality control the Z'-factor is calculated from 16 positive and negative control values. Only assay results showing a Z'-factor ≥ 0.5 are used for further analysis.

[2] = target: EGFR T790M L858R (Homo sapiens, UniProt P00533, L858R/T790M); assay: Lance assay, EGFR T790M L858R; details: biochemical Lance assay
[3] = tested on: H1975; assay: CellTiter-Glo cell viability, H1975; assay type: cell-based; details: Homo sapiens, NCI-H1975, 72 h, read-out: H1975 CTG IC50
Method: as §1

[4] = tested on: EGFR L858R T790M Ba/F3; assay: CellTiter-Glo cell viability, EGFR L858R T790M Ba/F3; assay type: cell-based; details: Mus musculus, BaF3, 72 h, read-out: EGFR L858R T790M Ba/F3 CTG IC50 /
Method: as §1

[5] = tested on: EGFR Exon 20 InsNPH Ba/F3; assay: CellTiter-Glo cell viability, EGFR Exon 20 InsNPH Ba/F3; assay type: cell-based; details: Mus musculus, BaF3, 72 h, read-out: EGFR Exon 20 InsNPH Ba/F3 CTG IC50
Method: as §1

[6] = target: T1, HER2 INS YVMA (Homo sapiens, UniProt P04626, INS775YVMA); assay: Lance Kinase Activity Assay, Her2 Exon 20 InsYVMA; details: biochemical Lance assay
T1 construct: purchased DPF
Method: This protocol describes how the Lance Kinase Activity Assay was performed to determine IC50 values of compounds of general formula (I) against HER2 INS YVMA. The principle behind this enzymatic assay is based upon the phosphorylation of the Ulight-peptide substrate. It is detected by using a specific EU-labeled anti-phospho peptide antibody. The binding of the Eu labeled anti-phospho peptide antibody to the phosphorylated ULight labeled peptide gives rise to a FRET-signal. Binding of an inhibitor to the kinase prevents phosphorylation of the Ulight-substrate, resulting in a loss of FRET. In table 2 is summarized the relevant information for the LANCE assay. Table 2: Reagents, stock concentrations and final assay concentrations for Her2 INS YVMA.
The compounds of general formula (I) summarized in Table 3 were serial diluted from a 10 mM DMSO stock solution 1:3 over 8 steps in a total volume of 20 µl. For every sample, 8 µl of kinase-substrate mix was transferred into a suitable assay plate (e.g. Corning #3673). Compound was added via pintool transfer (10nl/well) using a Biomek FX robot (BeckmanCoulter). Reaction was started by addition of 2µl ATP working solution and mixed using variomag teleshaker (Thermo Fischer Scientific). After 1 h incubation at room temperature the reaction was stopped with 10µl detection mix containing the Eu-labeled phosphospecific antibody and 10mM EDTA. After a second incubation period of 1 h at room temperature the FRET signal was measured at 340 nm excitation, 665 nm and 615 nm emission (for the ULight-substrate and Eu-AB, respectively) with an Envision spectrophotometer (Perkin Elmer, Waltham, MA, USA) with 50 µs delay and 300 µs integration time. IC50 values were determined from the sigmoidal dose response curves with the software Quattro Workflow (Quattro GmbH, Munich, Germany).

[7] = target: EGFR L858R (Homo sapiens, UniProt P00533, L858R); assay: Lance assay, EGFR L858R; details: biochemical Lance assay
[8] = target: EGFR (del746-750) (Homo sapiens, UniProt P00533, DEL746-750); assay: Lance assay, EGFR (del746-750); details: biochemical Lance assay
[9] = tested on: Cuto-17; assay: CellTiter-Glo cell viability, Cuto-17; assay type: cell-based; details: CUTO17, 72 h, read-out: Cuto-17 CTG IC50
Method: as §1

[10] = tested on: A431; assay: CellTiter-Glo cell viability, A431; assay type: cell-based; details: Homo sapiens, A-431, 72 h, read-out: A431 CTG IC50
Method: as §1

[11] = target: EGFR wt (Homo sapiens, UniProt P00533); assay: Lance assay, EGFR wt; details: biochemical Lance assay
[12] = tested on: EGFR L858R Ba/F3; assay: CellTiter-Glo cell viability, EGFR L858R Ba/F3; assay type: cell-based; details: Mus musculus, BaF3, 72 h, read-out: EGFR L858R Ba/F3 CTG IC50 /
Method: as §1

[13] = tested on: EGFR vIII Ba/F3; assay: CellTiter-Glo cell viability, EGFR vIII Ba/F3; assay type: cell-based; details: Mus musculus, BaF3, 72 h, read-out: EGFR vIII Ba/F3 CTG IC50 /
Method: as §1

Chain of EGFR (del746-750) (P00533 with tags, fused parts or gaps DEL746-750): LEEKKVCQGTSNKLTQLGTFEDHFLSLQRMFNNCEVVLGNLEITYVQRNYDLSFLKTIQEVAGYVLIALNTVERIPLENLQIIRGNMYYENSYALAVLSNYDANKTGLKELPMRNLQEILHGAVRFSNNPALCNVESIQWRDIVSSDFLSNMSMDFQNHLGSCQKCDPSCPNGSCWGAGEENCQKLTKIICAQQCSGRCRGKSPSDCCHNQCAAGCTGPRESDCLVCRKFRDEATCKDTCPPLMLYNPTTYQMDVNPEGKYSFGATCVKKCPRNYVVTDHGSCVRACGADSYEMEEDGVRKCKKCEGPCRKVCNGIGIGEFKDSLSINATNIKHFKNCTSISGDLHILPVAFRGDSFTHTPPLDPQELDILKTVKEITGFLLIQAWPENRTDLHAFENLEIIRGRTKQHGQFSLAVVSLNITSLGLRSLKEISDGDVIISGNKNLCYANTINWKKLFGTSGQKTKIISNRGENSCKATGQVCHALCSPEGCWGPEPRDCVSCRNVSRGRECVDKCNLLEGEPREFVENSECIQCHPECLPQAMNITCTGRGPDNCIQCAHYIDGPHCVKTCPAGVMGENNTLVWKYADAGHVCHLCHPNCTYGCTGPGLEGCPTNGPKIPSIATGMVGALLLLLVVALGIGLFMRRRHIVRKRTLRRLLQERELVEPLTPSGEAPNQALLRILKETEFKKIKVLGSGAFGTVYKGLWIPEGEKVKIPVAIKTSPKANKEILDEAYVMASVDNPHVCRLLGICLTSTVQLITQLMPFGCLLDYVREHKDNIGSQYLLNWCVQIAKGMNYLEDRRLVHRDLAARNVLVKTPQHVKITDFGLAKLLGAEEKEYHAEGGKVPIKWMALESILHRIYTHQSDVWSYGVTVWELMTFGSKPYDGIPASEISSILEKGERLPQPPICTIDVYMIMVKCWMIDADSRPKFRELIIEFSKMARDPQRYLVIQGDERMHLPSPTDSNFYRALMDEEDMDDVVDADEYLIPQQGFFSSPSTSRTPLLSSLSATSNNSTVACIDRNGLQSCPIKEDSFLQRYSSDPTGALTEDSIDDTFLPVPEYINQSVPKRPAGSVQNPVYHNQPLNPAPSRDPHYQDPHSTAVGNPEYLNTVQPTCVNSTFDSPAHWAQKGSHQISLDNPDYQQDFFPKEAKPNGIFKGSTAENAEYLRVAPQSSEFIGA
Chain of EGFR wt (P00533 25-1210): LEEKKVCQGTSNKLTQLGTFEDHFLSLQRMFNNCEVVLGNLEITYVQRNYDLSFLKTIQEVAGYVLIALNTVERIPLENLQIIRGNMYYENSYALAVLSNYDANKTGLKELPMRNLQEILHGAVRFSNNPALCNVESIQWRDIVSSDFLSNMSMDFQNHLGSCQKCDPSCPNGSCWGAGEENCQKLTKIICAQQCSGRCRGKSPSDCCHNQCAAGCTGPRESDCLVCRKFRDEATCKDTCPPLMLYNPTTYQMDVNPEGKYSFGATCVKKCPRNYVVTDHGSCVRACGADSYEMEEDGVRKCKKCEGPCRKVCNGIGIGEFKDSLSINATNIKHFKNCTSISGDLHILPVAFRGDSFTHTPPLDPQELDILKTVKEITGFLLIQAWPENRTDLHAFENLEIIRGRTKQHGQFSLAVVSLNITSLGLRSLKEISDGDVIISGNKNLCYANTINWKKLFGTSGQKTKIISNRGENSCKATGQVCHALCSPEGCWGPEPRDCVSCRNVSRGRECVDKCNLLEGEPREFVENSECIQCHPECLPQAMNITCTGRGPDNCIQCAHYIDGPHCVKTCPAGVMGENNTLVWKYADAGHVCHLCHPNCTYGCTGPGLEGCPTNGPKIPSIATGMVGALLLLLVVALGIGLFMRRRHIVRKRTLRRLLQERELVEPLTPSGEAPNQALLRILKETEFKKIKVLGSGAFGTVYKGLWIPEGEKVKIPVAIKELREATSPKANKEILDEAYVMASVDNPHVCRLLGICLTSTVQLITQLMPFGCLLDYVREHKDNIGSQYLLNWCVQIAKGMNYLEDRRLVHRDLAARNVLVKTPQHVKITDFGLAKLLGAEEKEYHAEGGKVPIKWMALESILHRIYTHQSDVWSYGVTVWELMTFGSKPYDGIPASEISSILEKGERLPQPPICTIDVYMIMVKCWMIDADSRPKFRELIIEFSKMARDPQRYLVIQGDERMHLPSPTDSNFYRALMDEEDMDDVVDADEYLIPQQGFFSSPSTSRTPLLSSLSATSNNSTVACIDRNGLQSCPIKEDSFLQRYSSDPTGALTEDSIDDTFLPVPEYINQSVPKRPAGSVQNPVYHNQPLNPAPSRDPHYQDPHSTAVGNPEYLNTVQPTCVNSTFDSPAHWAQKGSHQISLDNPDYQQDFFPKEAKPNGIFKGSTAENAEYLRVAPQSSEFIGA
T1 sequence (P04626 with tags, fused parts or gaps INS775YVMA): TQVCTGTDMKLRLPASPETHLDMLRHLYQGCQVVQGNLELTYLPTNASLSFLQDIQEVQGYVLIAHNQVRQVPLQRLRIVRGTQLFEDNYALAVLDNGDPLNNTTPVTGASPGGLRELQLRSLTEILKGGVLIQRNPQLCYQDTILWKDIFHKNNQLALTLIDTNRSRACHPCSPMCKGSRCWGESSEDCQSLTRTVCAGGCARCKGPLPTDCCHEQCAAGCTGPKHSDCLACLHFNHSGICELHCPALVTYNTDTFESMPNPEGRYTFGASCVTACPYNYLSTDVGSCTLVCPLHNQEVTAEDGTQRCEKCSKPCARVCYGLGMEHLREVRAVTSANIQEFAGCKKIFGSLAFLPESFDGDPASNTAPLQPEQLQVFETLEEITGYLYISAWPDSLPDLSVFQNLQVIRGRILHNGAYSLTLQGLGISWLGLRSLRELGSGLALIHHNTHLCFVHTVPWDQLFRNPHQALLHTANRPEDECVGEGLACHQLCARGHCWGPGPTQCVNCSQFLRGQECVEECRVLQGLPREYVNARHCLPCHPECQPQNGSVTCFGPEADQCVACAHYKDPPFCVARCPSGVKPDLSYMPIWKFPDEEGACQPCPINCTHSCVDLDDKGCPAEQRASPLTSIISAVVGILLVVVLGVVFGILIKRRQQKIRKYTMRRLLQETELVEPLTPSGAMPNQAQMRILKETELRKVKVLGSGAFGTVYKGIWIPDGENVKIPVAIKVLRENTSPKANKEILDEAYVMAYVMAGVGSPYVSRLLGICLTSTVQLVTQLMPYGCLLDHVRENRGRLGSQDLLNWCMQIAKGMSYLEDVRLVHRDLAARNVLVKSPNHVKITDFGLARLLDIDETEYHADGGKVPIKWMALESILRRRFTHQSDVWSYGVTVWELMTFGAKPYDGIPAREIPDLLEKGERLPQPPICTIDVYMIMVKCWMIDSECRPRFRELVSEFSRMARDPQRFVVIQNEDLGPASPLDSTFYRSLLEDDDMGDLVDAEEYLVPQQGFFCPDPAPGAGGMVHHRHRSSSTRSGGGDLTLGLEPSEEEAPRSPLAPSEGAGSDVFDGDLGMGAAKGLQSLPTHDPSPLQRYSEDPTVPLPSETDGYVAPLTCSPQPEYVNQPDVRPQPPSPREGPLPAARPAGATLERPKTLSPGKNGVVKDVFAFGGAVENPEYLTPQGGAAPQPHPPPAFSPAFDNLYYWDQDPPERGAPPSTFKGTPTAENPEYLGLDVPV
Chain of EGFR T790M L858R (P00533 25-1210 T790M/L858R): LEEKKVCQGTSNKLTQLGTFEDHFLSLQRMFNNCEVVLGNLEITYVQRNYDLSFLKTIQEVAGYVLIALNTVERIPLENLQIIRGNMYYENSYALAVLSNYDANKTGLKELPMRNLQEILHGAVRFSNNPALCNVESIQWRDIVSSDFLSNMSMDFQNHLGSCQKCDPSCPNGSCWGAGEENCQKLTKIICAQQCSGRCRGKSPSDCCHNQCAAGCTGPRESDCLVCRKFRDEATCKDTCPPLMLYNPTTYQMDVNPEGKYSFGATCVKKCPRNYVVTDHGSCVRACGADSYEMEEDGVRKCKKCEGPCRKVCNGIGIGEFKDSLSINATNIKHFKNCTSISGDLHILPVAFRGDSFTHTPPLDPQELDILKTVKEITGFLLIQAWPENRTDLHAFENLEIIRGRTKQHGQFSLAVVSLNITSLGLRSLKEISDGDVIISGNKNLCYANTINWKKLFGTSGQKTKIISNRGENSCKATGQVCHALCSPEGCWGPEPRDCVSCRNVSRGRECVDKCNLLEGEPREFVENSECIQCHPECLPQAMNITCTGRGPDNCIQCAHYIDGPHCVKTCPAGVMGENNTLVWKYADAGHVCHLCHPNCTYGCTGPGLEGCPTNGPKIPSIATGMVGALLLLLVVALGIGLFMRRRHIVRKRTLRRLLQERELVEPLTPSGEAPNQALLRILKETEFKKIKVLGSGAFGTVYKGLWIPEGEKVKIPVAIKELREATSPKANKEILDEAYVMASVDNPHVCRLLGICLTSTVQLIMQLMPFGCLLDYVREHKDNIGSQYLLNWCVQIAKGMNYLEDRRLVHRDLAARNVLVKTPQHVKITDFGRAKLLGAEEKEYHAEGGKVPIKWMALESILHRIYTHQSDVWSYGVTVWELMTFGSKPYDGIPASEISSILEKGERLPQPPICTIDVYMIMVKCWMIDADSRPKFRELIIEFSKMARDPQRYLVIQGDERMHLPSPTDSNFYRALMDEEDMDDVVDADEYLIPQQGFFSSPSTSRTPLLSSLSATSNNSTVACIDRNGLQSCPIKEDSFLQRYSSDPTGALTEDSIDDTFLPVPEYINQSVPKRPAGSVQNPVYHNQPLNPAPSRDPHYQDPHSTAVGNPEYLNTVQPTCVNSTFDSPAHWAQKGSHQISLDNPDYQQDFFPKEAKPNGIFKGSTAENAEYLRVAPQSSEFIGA

| IC50 [1] | IC50 [2] | IC50 [3] | IC50 [4] | IC50 [5] | IC50 [6] | IC50 [7] | IC50 [8] | IC50 [10] | IC50 [11] | IC50 [12] | IC50 [13] | SMILES | IC50 [9] |
| --- | --- | --- | --- | --- | --- | --- | --- | --- | --- | --- | --- | --- | --- |
| 100 to 500 nM | ≤ 50 nM | 500 to 1000 nM | ≤ 50 nM | 100 to 500 nM | 50 to 100 nM | ≤ 50 nM | ≤ 50 nM | 1000 to 10000 nM | ≤ 50 nM | ≤ 50 nM | 100 to 500 nM | C=CC(=O)Nc1cc(-c2c(-c3cnn(C)c3)[nH]c3ncc(C(=O)OC(C)C)cc23)ccc1C [Example 1, Isopropyl 3-(3-acrylamido-4-methylphenyl)-2-(1-methyl-1H-pyrazol-4-yl)-1H-pyrrolo[2,3-b]pyridine-5-carboxylate 2,2,2-trifluoroacetate] | 500 to 1000 nM |
| 100 to 500 nM | ≤ 50 nM | 100 to 500 nM | 50 to 100 nM | 50 to 100 nM | 100 to 500 nM | ≤ 50 nM | ≤ 50 nM | 1000 to 10000 nM | ≤ 50 nM | ≤ 50 nM | 50 to 100 nM | C=CC(=O)Nc1cc(-c2c(-c3cnn(C)c3)[nH]c3ncc(C(=O)OC(C)C)c(C)c23)ccc1C [Example 7, isopropyl 3-(3-acrylamido-4-methylphenyl)-4-methyl-2-(1-methyl-1H-pyrazol-4-yl)-1H-pyrrolo[2,3-b]pyridine-5-carboxylate2,2,2-trifluoroacetate] | 100 to 500 nM |
| 100 to 500 nM | ≤ 50 nM | – | ≤ 50 nM | 50 to 100 nM | 50 to 100 nM | ≤ 50 nM | ≤ 50 nM | 1000 to 10000 nM | ≤ 50 nM | ≤ 50 nM | ≤ 50 nM | C=CC(=O)Nc1cc(-c2c(-c3cnn(C)c3)[nH]c3ncc(-c4cnn(C5CC5)c4)cc23)ccc1C [Example 31, N-(5-(5-(1-cyclopropyl-1H-pyrazol-4-yl)-2-(1-methyl-1 H-pyrazol-4-yl)-1 H-pyrrolo[2,3-b]pyridin-3-yl)-2-methylphenyl)acrylamide] | – |
| 100 to 500 nM | ≤ 50 nM | – | 100 to 500 nM | 50 to 100 nM | 100 to 500 nM | ≤ 50 nM | ≤ 50 nM | 1000 to 10000 nM | ≤ 50 nM | ≤ 50 nM | ≤ 50 nM | C=CC(=O)Nc1cc(-c2c(-c3cnn(C)c3)[nH]c3ncc(-c4cnn(C)c4)cc23)ccc1C [Example 26, N-(5-(2,5-bis(1-methyl-1H-pyrazol-4-yl)-1H-pyrrolo[2,3-b]pyridin-3-yl)-2-methylphenyl)acrylamide 2,2,2-trifluoroacetate] | – |
| 100 to 500 nM | ≤ 50 nM | – | ≤ 50 nM | ≤ 50 nM | ≤ 50 nM | ≤ 50 nM | ≤ 50 nM | 500 to 1000 nM | ≤ 50 nM | ≤ 50 nM | ≤ 50 nM | C=CC(=O)Nc1cc(-c2c(-c3cnn(C)c3)[nH]c3ncc(-c4cnn(C)c4C)cc23)ccc1C [Example 29, N-(5-(5-(1,5-dimethyl-1H-pyrazol-4-yl)-2-(1-methyl-1 H-pyrazol-4-yl)-1 H-pyrrolo[2,3-b]pyridin-3-yl)-2-methylphenyl)acrylamide] | – |
| 1000 to 10000 nM | ≤ 50 nM | – | 100 to 500 nM | 500 to 1000 nM | 100 to 500 nM | ≤ 50 nM | ≤ 50 nM | 1000 to 10000 nM | ≤ 50 nM | ≤ 50 nM | 100 to 500 nM | C=CC(=O)Nc1cc(-c2c(-c3cnn(C)c3)[nH]c3ncc(-c4cnn(C5COC5)c4)cc23)ccc1C [Example 35, N-(2-methyl-5-(2-(1-methyl-1H-pyrazol-4-yl)-5-(1-(oxetan-3-yl)-1 H-pyrazol-4-yl)-1H-pyrrolo[2,3-b]pyridin-3-yl)phenyl)acrylamide] | – |
| 100 to 500 nM | 100 to 500 nM | – | 100 to 500 nM | 50 to 100 nM | 100 to 500 nM | ≤ 50 nM | ≤ 50 nM | 1000 to 10000 nM | ≤ 50 nM | ≤ 50 nM | ≤ 50 nM | C=CC(=O)Nc1cc(-c2c(-c3cnn(C)c3)[nH]c3ncc(-c4cnn(CC(C)C)c4)cc23)ccc1C [Example 32, N-(5-(5-(1-isobutyl-1H-pyrazol-4-yl)-2-(1-methyl-1H-pyrazol-4-yl)-1H-pyrrolo[2,3-b]pyridin-3-yl)-2-methylphenyl)acrylamide] | – |
| > 10000 nM | 100 to 500 nM | – | 1000 to 10000 nM | 1000 to 10000 nM | 500 to 1000 nM | ≤ 50 nM | ≤ 50 nM | 1000 to 10000 nM | ≤ 50 nM | > 10000 nM | 1000 to 10000 nM | C=CC(=O)Nc1cc(-c2c(-c3cnn(C)c3)[nH]c3ncc(-c4cnn(CCN(C)C)c4)cc23)ccc1C [Example 34, N-(5-(5-(1-(2-(dimethylamino)ethyl)-1H-pyrazol-4-yl)-2-(1-methyl-1H-pyrazol-4-yl)-1H-pyrrolo[2,3-b]pyridin-3-yl)-2-methylphenyl)acrylamide] | – |
| 100 to 500 nM | ≤ 50 nM | – | 50 to 100 nM | ≤ 50 nM | 50 to 100 nM | ≤ 50 nM | ≤ 50 nM | 1000 to 10000 nM | ≤ 50 nM | ≤ 50 nM | ≤ 50 nM | C=CC(=O)Nc1cc(-c2c(-c3cnn(C)c3)[nH]c3ncc(-c4cnn(CC)c4)cc23)ccc1C [Example 28, N-(5-(5-(1-ethyl-1H-pyrazol-4-yl)-2-(1-methyl-1 H-pyrazol-4-yl)-1 H-pyrrolo[2,3-b]pyridin-3-yl)-2-methylphenyl)acrylamide] | – |
| 500 to 1000 nM | ≤ 50 nM | – | 100 to 500 nM | 100 to 500 nM | 100 to 500 nM | ≤ 50 nM | ≤ 50 nM | 1000 to 10000 nM | ≤ 50 nM | ≤ 50 nM | 100 to 500 nM | C=CC(=O)Nc1cc(-c2c(-c3cnn(C)c3)[nH]c3ncc(-c4cn(C)nc4C)cc23)ccc1C [Example 30, N-(5-(5-(1,3-dimethyl-1H-pyrazol-4-yl)-2-(1-methyl-1 H-pyrazol-4-yl)-1 H-pyrrolo[2,3-b]pyridin-3-yl)-2-methylphenyl)acrylamide] | – |

| SMILES | IC50 [1] | IC50 [2] | IC50 [3] | IC50 [4] | IC50 [5] | IC50 [6] | IC50 [7] | IC50 [8] | IC50 [10] | IC50 [11] | IC50 [12] | IC50 [13] | IC50 [9] |
| --- | --- | --- | --- | --- | --- | --- | --- | --- | --- | --- | --- | --- | --- |
| C=CC(=O)Nc1cc(-c2c(-c3cnn(C)c3)[nH]c3ncc(OCC(C)C)cc23)ccc1C [Example 4, N-(5-(5-isobutoxy-2-(1-methyl-1H-pyrazol-4-yl)-1H-pyrrolo[2,3-b]pyridin-3-yl)-2-methylphenyl)acrylamide 2,2,2-trifluoroacetate] | 100 to 500 nM | 50 to 100 nM | 100 to 500 nM | ≤ 50 nM | 100 to 500 nM | 50 to 100 nM | ≤ 50 nM | ≤ 50 nM | 1000 to 10000 nM | ≤ 50 nM | ≤ 50 nM | ≤ 50 nM | 100 to 500 nM |
